According to US7592341B2, “Peptide-enhanced corneal drug delivery” (Kansas State University Research Foundation, priority 2004, dated 2009):
No end group written: not given here.

Tests used:
corneal epithelium [1] = assay: Electron microscopy with ruthenium red of treated corneas (tight junction opening, morphology); conditions: 30 minute preincubation samples; for corneal epithelial morphology by EM: 200 μM peptide or 0.01% BAC
Method: In order to document the in situ opening of the tight junctions, peptide treated corneas were chemically fixed at the end of a dye transport assay for morphology studies. The control and test samples were treated with the dye ruthenium red, which binds to the plasma membrane of epithelium and cannot pass the tight junctions. […] As a control, the ophthalmic preservative benzalkonium chloride (BAC) was used in place of the peptide. […] NC-1059 (Seq. ID No. 1) was compared to BAC in a paired cornea experiment: 0.01% BAC solution and 200 μM ml of the peptide were incubated individually for either 15 or 30 minutes in the test chambers. The solutions were washed. 5 mL of BSS plus was added to both chambers and then spiked with 2 mL of CF. Sample aliquots were taken (100 μL) every half hour from the endothelial chamber for 6 hours. […] At the end of the experiment treated corneas were tested for residual internalized CF and then fixed for morphological analysis by EM. […] An EM study using ruthenium red to highlight the plasma membrane and grid staining to increase the contrast was performed on the 30 minute samples used to generate FIG. 5.

MDCK monolayers = assay: Methotrexate uptake in epithelial monolayer experiments; assay type: cell-based, canine; conditions: peptide washout experiments in culture; LC-ESI-MS
Method: This example followed the procedures of the monolayer experiments of Example 1 in order to test the uptake of fluorescently labeled methotrexate (MTX) and MTX that was not fluorescently labeled. Enhanced uptake of the fluorescently labeld MTX was not observed during co-incubation due to adverse interactions between the peptide and the modified drugs. However, in peptide washout experiments in culture, MTX uptake increased by ten-fold. Measurement of the unlabeled MTX was performed using LC-ESI-MS and a standard MTX amount for calibration and comparison purposes.

corneal epithelium [2] = conditions: known; cited from earlier work
rabbit cornea = assay: Ex vivo transcorneal dye transport and corneal dye uptake in isolated rabbit cornea (perfusion chamber); conditions: for residual internalized CF in cornea: washed, 200 μM peptide or 0.01% BAC, FIG. 6
Method: For rabbit in vitro studies, corneas were obtained from eyes of New Zealand White rabbits weighing 5.0 to 5.5 kg, which were anesthetized and then killed by intracardiac injection of sodium pentobarbital (97.2 mg/kg). […] For a given pair of eyes, the epithelium was scraped from one of the corneas with a scalpel blade; on the opposite eye the epithelium was left intact. […] This method prevented trauma to the corneal epithelium and distortion of the corneal curvature during clamping in the acrylic-block perfusion system. The scleral rim serves as a gasket and permits the cornea to be suspended within the corneal ring.
The retina and pigment epithelium were removed and the cornea was clamped in the corneal holder. The exposed surface area for diffusion was 1.2 cm^2 for the cornea and 1.1 cm^2 for the sclera. The perfusion chamber was made of acrylic and placed in a water jacket to maintain the temperature of the cornea and perfusion medium at 35° C. A volume of 6 mL of balanced salt solution with oxidized glutathione (BBS Plus, Alcon Laboratories Inc, Fort Worth, Tex.) at pH 7.4 was placed in the endothelial chamber. The peptides were added to the balanced salt solution with oxidized glutathione at a concentration of 1 mM. Six milliliters of each solution was added to the epithelial chamber. […] Serial 0.5-mL samples were removed from each reservoir at 30-minute intervals, and after three hours at the termination of the permeability study, the remaining 3 mL was removed. […] The corneal permeability (P) was obtained by taking into account the volume (6 mL) of the endothelial chamber and the corneal area (square centimeters), as follows: P=kin endothelial chamber volume/corneal area.
Numerous paired sets of experiments were conducted using each of the two dyes. The paired experiments included a control cornea obtained from one of the eyes of a rabbit, which was bathed in the BSS+ buffer and given 100 μL of water at the start of the experiment. In the test cornea, from the second eye of the same rabbit, 100 μL of peptide was added at time zero to produce a 150-200 μM peptide solution in BSS+. Both the water and the peptide additions were made on the apical surface of the cornea. After 20-30 minutes of incubation, dye was added to the apical bathing solution (final concentration 300 μM of dye) and allowed to remain in contact with the cornea for 6 hours. […] At 30-minute intervals, 75-100 μL aliquots were removed from the endothelial bathing chamber and the concentration of the transported dye determined. In some later experiments the corneal surfaces were rinsed 2-3 times with fresh BSS+ (wash out) to remove unbound peptide prior to the addition of the dye. The peptide is added to the apical bathing chamber.

[3] = system: small intestine epithelia; conditions: reduction in epithelial resistance; cited from earlier work
corneal epithelium [4] = conditions: rabbit, in vivo
Method: A series of in vivo corneal epithelial permeability experiments in unanaesthetized rabbits was also conducted. NC-1059 (Seq. ID No. 1) was prepared in BSS (200 μM) and placed inside the lower eyelid of one eye with the other eye receiving an equal amount of BSS alone. The solutions were held in place for 3 minutes and then washed with BSS. After the indicated incubation periods, both eyes received 300 μM NaF or CF and the dye was kept in place for 3 or 5 minutes. After the contact period the eyes were washed with 40 mL of BSS solution. Total uptake was measured for both the control and treated eyes with an OcuMetrics, Ocular Fluorophotometer. The fold changes between the peptide treated and untreated eyes were calculated (FIG. 7). […] It would also appear that adding the dye immediately after peptide exposure results in the highest permeation. […] The reduced uptake at the 6-hour time point documents the transient effects of the peptide in vivo. This transient effect has been observed under all assay conditions: in vitro, in situ and in vivo. In the final column, the fold increase is only 1.7±1.1 (n=2). Viewed alone, this fold increase is some-what misleading because the net amount of more hydrophobic NaF taken up in eyes is higher (7.8-fold) than with the CF dye.

For KKKKAARVGLGITTVLVTTIGLGVRAA [NC-1059], the “corneal epithelial morphology by EM” value (corneal epithelium [1]) was “normal healthy epithelial morphology”.
With `CN(Cc1cnc2nc(N)nc(N)c2n1)c1ccc(C(=O)N[C@@H](CCC(=O)O)C(=O)O)cc1` [MTX, methotrexate] the “increase of MTX uptake” value (MDCK monolayers) was “ten-fold”.
For benzalkonium chloride [BAC], the “depth of ruthenium red staining of multilayered corneal epithelium” value (corneal epithelium [1]) is given as 4-5 layers, the “corneal epithelial morphology by EM” value (corneal epithelium [1]) is given as “altered morphology with some cells appearing swollen” and the “concentration above which BAC causes cellular damage” value (corneal epithelium [2]) is given as “greater than 0.005%”. The “induced transport rates for CF in paired corneas, BAC vs NC-1059” value (rabbit cornea; 15 min preincubation, FIG. 5A) was “appear identical”, the “residual internalized CF in cornea” value (rabbit cornea; 15 min preincubation) was 27.8 µg and the “residual internalized CF in cornea” value (rabbit cornea; 30 min preincubation) was 40.7 µg. The “induced CF translocation in paired corneas, BAC vs NC-1059” value (rabbit cornea; 30 minutes preincubation, FIG. 5B) was “begins to promote increased CF translocation after the three-hour test point”.
For “ZOT: zonula occludens toxin of Vibrio cholerae, 399 a.a.”, the onset of effects [3] is given as < 20 min.
In the case of Sodium Carboxy Fluorescein [NaF], the “net amount of NaF taken up in eyes relative to CF dye” value (corneal epithelium [4]) is reported as 7.8 fold.
